Assay results: patent publication US7465814B2, “Sulfonate compound and fluorescent probe using the same” (priority 2003, dated 2008)

Assays:
[1] = Tracking fluorescence with enzymatically produced superoxide (FIG. 1a-c); type: biochemical
Text: This figure is a graph showing results that are obtained by tracking fluorescence by allowing the compound 1d to react with H2O2 or superoxide produced enzymatically, a horizontal axis thereof represents a reaction time (second), and a vertical axis thereof represents a fluorescence intensity (au). In the figure, (a) represents a result obtained by a reaction in the presence of HPX and XO, (b) represents a result obtained by a reaction in the presence of HPX, XO and SOD, (c) represents a result obtained by a reaction under an anaerobic condition in the presence of HPX, XO and SOD, and (d) represents a result obtained by a reaction with only H2O2. The test results shown in FIG. 1 will be described below in further detail.
More specifically, the enzyme reaction of the compound 1d (16 μM), xanthine oxidase (XO, 0.01 U/mL) and hypoxanthine (HPX, 40 μM) at 37° C. in a HEPES buffer solution (pH 7.4, 10 mM, 2.5 mL) was tracked at an excitation wavelength of 511 nm and an emission wavelength of 531 nm, then a fluorescent response caused by the formation of the compound 2d (above Scheme 4) was observed, and a progressive curve shown in FIG. 1(a) was obtained.
A specific description thereof will be provided below. NBT has a property of being reduced by superoxide O^2−•, and thus is used for a probe for spectrophotometric measurement and the like. However, NBT has a serious problem of being reduced not only by superoxide but also by reductase that exists in a biosystem.

[2] = tested on: neutrophils stimulated by phorbol myristate acetate (PMA); assay: Superoxide detection in PMA-stimulated neutrophils (FIG. 2, FIG. 3); type: cell-based, human; conditions: probe 25 μM solution 50 μL, PMA 0.64 μM solution 50 μL, 37° C., 120 minutes
Text: It is known that, if neutrophils are stimulated by phorbol ester, superoxide is produced. […] A specific testing method will be described below.
Firstly, whole blood donated by a good-health volunteer was heparinized, and it was subjected to centrifugal separation after adding a Mono-Poly resolving medium manufactured by Dainippon Pharmaceutical Co. Ltd. thereto. After the separation, cells were washed with PBS (−) twice, were suspended again at a concentration of 1.0×10^6 or 1.0×10^5 cells/mL by using PBS (+), and were maintained under an ice-cold condition until they were used. […] Fluorescence intensity measurement was conducted immediately (measurement at the time 0), and thereafter, incubation was conducted at 37° C. for 120 minutes. During the incubation, a change of the fluorescence intensity of the cells was measured once every 30 minutes. All of the measurements were conducted by using a CytoFluor II multiwell fluorescence plate reader (trade name) manufactured by PerSeptive Biosystems, Inc. in the U.S., by setting an excitation filter and an emission filter at 485±20 nm and 530±25 nm, respectively.
A horizontal axis of the graph denotes an incubation time (minute), and a vertical axis thereof denotes a fluorescence intensity (au). […]

[3] = Fluorescent response to XO-HPX system, 96-well microplate (Table 1); type: biochemical; conditions: relative fluorescence intensity, blank = 10, probe 21.3 μM, 10 minutes
Protocol: Moreover, in other conditions than those of the above-described tests, reactivity of all of the compounds 1a to 1d with H2O2, other various kinds of nucleophilic agents, reducing agents and the like also was tested, respectively. More specifically, fluorescent responses of 1a to 1d with respect to a XO-HPX system, a XO-HPX-SOD system, H2O2, ascorbic acid, 1,4-hydroquinone, propylamine, diethylamine, glucose, esterase, a cytochrome P450 reductase+NADPH system, and a diaphorase+NADH system were measured, respectively. Operational processes thereof will be described below. Firstly, 1a to 1d and the above-described reagents were dissolved in HEPES of 10 mM having a pH of 7.4 so as to prepare solutions, respectively. Next, a 96 wellmicroplate was provided, where any of the solutions of 1a to 1d (25 μM, 170 μL) was poured into each of the wells, and furthermore, 30 μL of a blank solution or 30 μL of the solution of the reagent to be reacted therewith was added thereto. Final concentrations of the solutions in the wells were adjusted so that concentrations of the solutions of 1a to 1d respectively could be 21.3 μM, that of XO could be 13.1 mU/mL, those of HPX, H2O2, ascorbic acid, 1,4-hydroquinone, propylamine, diethylamine, glucose, NADPH and NADH respectively could be 50 μM, that of cytochrome P450 reductase could be 68 mU/mL, that of diaphorase could be 65 mU/mL, and that of esterase could be 0.5 U/mL, respectively. Then, after they reacted in the wells at 37° C. for 10 minutes, fluorescent responses were measured respectively. Fluorescence intensity measurement was conducted by using an ETC-272 Peltier thermostatted single cell holder (trade name) manufactured by JASCO Corporation or a SpectraMax GeminiEM fluorescence plate reader (trade name) manufactured by Molecular Devices Corporation provided with a FP-750 spectrofluorometer (trade name) manufactured by JASCO Corporation, and by setting excitation wavelengths and emission wavelengths so that those of 1a, 1b and 1c respectively could be 485 nm and 515 nm, and those of 1d respectively could be 511 nm and 540 nm.

O=C1OC2(c3ccccc31)c1cc(F)c(OS(=O)(=O)c3ccc([N+](=O)[O-])cc3[N+](=O)[O-])c(F)c1Oc1c2cc(F)c(OS(=O)(=O)c2ccc([N+](=O)[O-])cc2[N+](=O)[O-])c1F [Compound 1d]
fluorescence response with HPX and XO, FIG. 1(a) ([1]; 1d 16 μM, XO 0.01 U/mL, HPX 40 μM, 37° C., HEPES pH 7.4, ex 511 nm, em 531 nm): increase a fluorescence response significantly in a short period of time
production of 2d from 1d caused by XO reductant, FIG. 1(c) ([1]; HPX, XO and SOD under the anaerobic condition): proceeded at a very low speed
fluorescence response with HPX, XO and SOD, FIG. 1(b) ([1]; as FIG. 1(a) plus SOD 40 U/mL): inhibited significantly
detection of superoxide from PMA-stimulated neutrophils [2]: could detect superoxide with high sensitivity in a cell system also
fluorescent response, XO—HPX ([3]; XO 13.1 mU/mL, HPX 50 μM, HEPES pH 7.4, 37° C.): 554
fluorescent response, XO—HPX—SOD ([3]; XO-HPX with SOD, 37° C.): 60
